Data published in ChEMBL document CHEMBL1140634, “The biology and chemistry of hyperlipidemia” (Bioorg Med Chem, 2007).
Blank lines part the entries; values can stand above or below the molecule they belong to.

Key:
[1] = system: Rattus norvegicus; test: Reduction in LDL cholesterol in rat plasma at 20 mg/kg, po qd for 7 days; format: functional; design: scale not given: the % may be the effect or the level left
[2] = species: Rattus norvegicus; test: Inhibition of [14C]cholesterol synthesis in rat liver after 1 hr; format: functional
[3] = Inhibition of rat liver microsomal squalene synthase
[4] = Inhibition of ferrous/ascorbate induced lipid peroxidation of microsomal membrane lipids; format: functional
[5] = target: T1, Lanosterol synthase (Candida albicans (strain SC5314 / ATCC MYA-2876) (Yeast), UniProt Q04782)
T1 sequence (Q04782 whole entry): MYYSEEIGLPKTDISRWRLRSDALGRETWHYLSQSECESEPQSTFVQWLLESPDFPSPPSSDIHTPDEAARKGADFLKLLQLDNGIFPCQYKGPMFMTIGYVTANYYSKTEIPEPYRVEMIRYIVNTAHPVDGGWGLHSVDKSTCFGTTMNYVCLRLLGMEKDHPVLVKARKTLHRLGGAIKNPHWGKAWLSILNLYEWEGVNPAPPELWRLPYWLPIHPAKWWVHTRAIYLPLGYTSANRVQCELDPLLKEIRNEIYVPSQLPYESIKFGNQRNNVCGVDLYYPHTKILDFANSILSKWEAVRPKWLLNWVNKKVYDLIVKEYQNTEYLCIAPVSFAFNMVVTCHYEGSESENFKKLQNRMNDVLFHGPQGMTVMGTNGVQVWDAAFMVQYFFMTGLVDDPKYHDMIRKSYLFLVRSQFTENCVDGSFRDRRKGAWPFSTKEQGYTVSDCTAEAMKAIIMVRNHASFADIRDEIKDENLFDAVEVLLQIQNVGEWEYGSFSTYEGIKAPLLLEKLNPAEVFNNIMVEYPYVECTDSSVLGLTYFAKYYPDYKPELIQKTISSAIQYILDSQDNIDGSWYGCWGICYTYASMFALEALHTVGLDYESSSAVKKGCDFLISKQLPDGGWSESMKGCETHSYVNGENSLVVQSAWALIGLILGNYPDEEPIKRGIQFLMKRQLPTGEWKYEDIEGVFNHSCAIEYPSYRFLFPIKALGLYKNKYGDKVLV
Description: Inhibition of Candida albicans OSC

[6] = Inhibition of pig OSC; design: species or system Sus scrofa
[7] = target: T2, 3-hydroxy-3-methylglutaryl-coenzyme A reductase (Homo sapiens) (UniProt P04035); test: Inhibition of HMG-CoA reductase relative to control; conditions: concentration not given here
T2 sequence (whole entry): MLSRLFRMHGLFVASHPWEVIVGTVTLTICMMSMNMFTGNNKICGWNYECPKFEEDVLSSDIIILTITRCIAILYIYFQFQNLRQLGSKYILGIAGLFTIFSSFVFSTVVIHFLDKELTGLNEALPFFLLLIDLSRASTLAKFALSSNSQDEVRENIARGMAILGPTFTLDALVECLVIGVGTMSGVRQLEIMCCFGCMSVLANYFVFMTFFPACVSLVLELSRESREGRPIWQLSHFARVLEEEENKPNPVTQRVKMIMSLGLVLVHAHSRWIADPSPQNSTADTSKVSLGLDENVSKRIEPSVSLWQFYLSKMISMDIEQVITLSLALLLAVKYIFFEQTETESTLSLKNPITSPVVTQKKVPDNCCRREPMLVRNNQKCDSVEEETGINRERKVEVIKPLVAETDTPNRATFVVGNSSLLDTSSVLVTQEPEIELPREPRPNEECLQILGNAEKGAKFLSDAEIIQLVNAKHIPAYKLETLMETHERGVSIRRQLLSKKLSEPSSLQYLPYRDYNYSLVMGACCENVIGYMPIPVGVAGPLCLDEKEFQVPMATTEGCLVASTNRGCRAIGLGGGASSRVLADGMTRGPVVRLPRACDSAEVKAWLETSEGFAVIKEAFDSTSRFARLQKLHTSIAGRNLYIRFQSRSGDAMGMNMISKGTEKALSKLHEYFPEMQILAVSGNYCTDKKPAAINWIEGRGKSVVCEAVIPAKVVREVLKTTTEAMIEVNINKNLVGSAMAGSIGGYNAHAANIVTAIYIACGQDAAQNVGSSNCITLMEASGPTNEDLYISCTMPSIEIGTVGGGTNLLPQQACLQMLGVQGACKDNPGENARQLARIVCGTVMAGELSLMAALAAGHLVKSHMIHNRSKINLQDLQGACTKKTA

[8] = target: T3, Lanosterol 14-alpha demethylase (Homo sapiens, UniProt Q16850); test: Inhibition of LDM in human HepG2 cells at 2 nM; format: cell-based
T3 sequence (Q16850 whole entry): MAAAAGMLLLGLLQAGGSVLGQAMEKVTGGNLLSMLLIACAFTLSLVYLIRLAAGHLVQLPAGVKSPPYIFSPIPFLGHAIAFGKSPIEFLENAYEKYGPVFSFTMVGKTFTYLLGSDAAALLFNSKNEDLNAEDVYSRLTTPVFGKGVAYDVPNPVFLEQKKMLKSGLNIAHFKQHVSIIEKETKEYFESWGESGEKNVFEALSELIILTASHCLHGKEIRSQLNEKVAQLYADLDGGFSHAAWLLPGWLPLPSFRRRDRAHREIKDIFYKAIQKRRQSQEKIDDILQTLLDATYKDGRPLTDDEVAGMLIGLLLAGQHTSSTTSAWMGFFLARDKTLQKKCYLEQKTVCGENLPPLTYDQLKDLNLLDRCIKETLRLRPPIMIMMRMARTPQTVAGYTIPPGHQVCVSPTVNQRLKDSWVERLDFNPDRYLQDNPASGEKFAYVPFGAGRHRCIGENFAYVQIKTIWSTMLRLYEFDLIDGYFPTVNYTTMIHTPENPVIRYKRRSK

[9] = system: HepG2; test: Inhibition of fatty acid synthesis in human HepG2 cells; format: functional
[10] = system: HepG2; test: Inhibition of cholesterol synthesis in human HepG2 cells; format: functional
[11] = species: Rattus norvegicus; test: Inhibition of cholesterol synthesis in rat; format: functional
[12] = species: Rattus norvegicus; test: Inhibition of fatty acid synthesis in rat; format: functional
[13] = species: Oryctolagus cuniculus; test: Decrease in aortic arch lesions in cholesterol fed rabbit; format: functional; design: scale not given: the % may be the effect or the level left
[14] = species: Rattus norvegicus; test: Reduction of cholesterol absorption in normal diet fed rat; format: functional
[15] = target: T4, Pancreatic triacylglycerol lipase (Homo sapiens, UniProt P16233); test: Inhibition of pancreatic lipase
T4 sequence (P16233 whole entry): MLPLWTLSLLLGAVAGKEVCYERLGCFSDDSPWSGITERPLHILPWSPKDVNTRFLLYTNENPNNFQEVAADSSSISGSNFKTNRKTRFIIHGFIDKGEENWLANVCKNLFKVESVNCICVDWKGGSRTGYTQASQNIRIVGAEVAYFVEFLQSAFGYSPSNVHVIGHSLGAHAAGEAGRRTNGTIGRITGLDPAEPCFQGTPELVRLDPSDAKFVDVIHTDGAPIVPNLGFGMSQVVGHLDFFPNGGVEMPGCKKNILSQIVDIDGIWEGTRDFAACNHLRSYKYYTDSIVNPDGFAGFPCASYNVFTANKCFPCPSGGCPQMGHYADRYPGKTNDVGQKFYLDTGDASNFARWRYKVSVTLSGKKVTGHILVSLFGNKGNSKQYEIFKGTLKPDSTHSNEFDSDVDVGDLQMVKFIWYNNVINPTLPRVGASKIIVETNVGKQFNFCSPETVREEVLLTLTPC

[16] = Inhibition of HMG-CoA synthase
[17] = system: Rhesus monkey; test: Decrease in nonHDL-C level in rhesus monkey plasma at 50 mg/kg, bid for 21 days; format: functional, Macaca mulatta; design: scale not given: the % may be the effect or the level left
[18] = target: T5, Lanosterol 14-alpha demethylase (Rattus norvegicus, UniProt Q64654); test: Inhibition of rat liver LDM
T5 sequence (Q64654 whole entry): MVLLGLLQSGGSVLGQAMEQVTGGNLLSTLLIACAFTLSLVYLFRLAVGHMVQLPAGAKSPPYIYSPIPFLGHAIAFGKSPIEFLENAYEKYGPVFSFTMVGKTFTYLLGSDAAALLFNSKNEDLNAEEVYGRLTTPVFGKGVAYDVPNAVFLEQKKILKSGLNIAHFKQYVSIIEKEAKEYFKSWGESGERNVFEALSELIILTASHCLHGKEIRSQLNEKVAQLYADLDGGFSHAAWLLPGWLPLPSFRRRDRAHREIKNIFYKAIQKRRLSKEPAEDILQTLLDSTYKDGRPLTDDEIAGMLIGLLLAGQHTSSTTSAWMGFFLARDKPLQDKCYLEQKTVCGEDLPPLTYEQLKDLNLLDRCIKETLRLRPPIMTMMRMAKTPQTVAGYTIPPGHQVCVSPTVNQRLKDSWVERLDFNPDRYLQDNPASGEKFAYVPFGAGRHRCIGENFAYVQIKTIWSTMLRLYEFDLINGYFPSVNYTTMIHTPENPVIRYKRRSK

[19] = system: Rattus norvegicus; test: Inhibition of cholesterol biosynthesis in po dosed Sprague-Dawley rat; format: functional

Compound: O[C@]1(c2ccc(-c3ccc4ncccc4c3)cc2)CN2CCC1CC2
- Activity [1]: 50%
- ED50 [2]: 5 mg/kg
- IC50 [3]: 0.0006 µM

- IC50 [4]: 250 µM
Compound: CN1CC(O)(c2ccc(-c3ccccc3)cc2)OC2CCCCC21 (centres undefined)

Compound: CC(C)=CCCC(C)SCC/C(C)=C/CC/C=C(\C)CC/C=C(\C)CCC1OC1(C)C (centres undefined)
- IC50 [5]: 0.00022 µM
- IC50 [6]: 0.05 µM
- Ki [6]: 0.5 µM

- IC50 [3]: 0.0036 µM
Compound: COc1ccccc1/C(C)=C/CN(C)CCCC(P(=O)(O)O)P(=O)(O)O

- inhibition [7]: 30%
- inhibition at 0.002 µM [8]: 50%
Compound: CC(C)CCC[C@@H](C)[C@H]1C=C[C@@]2(CC(=O)O)C3=C(CC[C@]12C)[C@@]1(C)CC[C@H](O)C(C)(C)[C@@H]1CC3

Compound: O=C(O)C[C@@]1(O)C[C@@H](CCCCCCc2ccc(Cl)cc2Cl)OC1=O
- Inhibition [9]: 82%
- Inhibition [10]: 91%
- Inhibition [11]: 76%
- Inhibition [12]: 39%

Compound: CCC(CC)CC1(C(=O)Nc2ccccc2SC(=O)C(C)C)CCCCC1 [DALCETRAPIB]
- Activity [13]: 70%

Compound: CC1CCN(C(=O)Oc2ccc(Oc3ccccc3)cc2)CC1
- ED50 [14]: 10 mg/kg

Compound: CC(C)c1cc2c(c(O)c1O)[C@@]1(C(=O)O)CCCC(C)(C)[C@@H]1CC2 [CARNOSIC ACID]
- IC50 [15]: 36 µM

- IC50 [16]: 0.002 µM
Compound: CCOc1ccc(CC(=O)OC[C@@H]2[C@H](CC)C(=O)N2Cc2ccc(S(=O)(=O)O)cc2)cc1OCC

Compound: F/C(COc1ccc2c(c1)[nH]c1ccccc12)=C1/CN2CCC1CC2
- ED50 [2]: 32 mg/kg
- Activity [17]: 37%

Compound: O[C@@]1(c2ccc(-c3ccc4ncccc4c3)cc2)CN2CCC1CC2
- Activity [1]: 43%
- ED50 [2]: 5 mg/kg
- IC50 [3]: 0.0006 µM

- IC50 [18]: 55 µM
Compound: CC(C)CCC[C@@H](C)[C@H]1C/C(=N\O)[C@@]2(C)[C@@H]3CC[C@@]4(C)C[C@@H](O)CC[C@]4(O)[C@H]3CC[C@]12C

- IC50 [15]: 13 µM
Compound: CC(C)c1cc2c(c(O)c1O)[C@@]13CCCC(C)(C)[C@@H]1C[C@@H]2OC3=O [CARNOSOL]

- IC50 [16]: 0.15 µM
Compound: C/C=C/CCCC/C=C/C(=O)NC(CC1(O)C(=O)C2OC2C2OC21)C(=O)OC (centres undefined)

Compound: COc1ccccc1/C(C)=C/CN(C)CCCC(P(=O)(O)OCOC(=O)C(C)(C)C)P(=O)(OCOC(=O)C(C)(C)C)OCOC(=O)C(C)(C)C (centres undefined)
- ED50 [19]: 1.6 mg/kg

- IC50 [16]: 31 µM
Compound: C/C=C/CCCC/C=C/C(=O)N[C@@H](C[C@@]1(O)C(=O)C2OC2C2OC21)C(=O)OC (some centres undefined)

- IC50 [16]: 0.098 µM
Compound: C/C=C/CCCC/C=C/C(=O)N[C@H](C[C@]1(O)C(=O)C2OC2C2OC21)C(=O)OC (some centres undefined)
